Values of other authors in patent US20070106232A1, “METHOD AND APPARATUS FOR EXTENDING FEEDING TUBE LONGEVITY” (priority 2003, published 2007).
Numbered stars: 1 amine (or outer) side, 2 acyl side, 3 side chain; on linkers, the order of the positions; unused ones are H or OH. Bridge positions count the residues as written; N and C are the ends. Square brackets hold non-standard residues; d marks the D form. Peptide text beside a SMILES is read from it. * marks the point of attachment. hTyr(3S-OH,4S-OH,3'-OSO3H) = N[C@H](C(=O)O)[C@H](O)[C@@H](O)c1ccc(O)c(OS(=O)(=O)O)c1; Orn(4R-OH,5R-OH) = O=C([C@H](C[C@@H](O)[C@@H](O)N[*:3])N[*:1])[*:2]; Pro(3S-OH,4S-Me) = C[C@H]1CN[C@H](C(=O)O)[C@H]1O; X1 = CCCCCOc1ccc(-c2cc(-c3ccc(C(=O)*)cc3)no2)cc1; Gln(3R-OH) = NC(=O)C[C@@H](O)[C@H](N)C(=O)O; Hyp = O=C(O)[C@@H]1C[C@@H](O)CN1

Key:
[1] = system: Candida albicans and Candida parapsilosis biofilms
[2] = system: feeding tube colonized with Candida; details: nystatin suspension 500,000 units/5 mL in the off cycle; amphotericin B 1 mg/10 mL for one week; tube lumen filled
[3] = system: yeast crust on inner surface of the tube; details: segments incubated in vitro overnight, endoscopic brush next day
[4] = system: Candida albicans biofilms; details: preformed Candida albicans biofilms; physiological concentrations; time-kill
[5] = system: Candida albicans biofilms
Candida spp. = details: including azole-resistant (Candida krusei), less susceptible (C. dubliniensis, C. glabrata) or amphotericin B resistant isolates
[6] = system: fungal colonization of feeding tubes; details: pre-procedural preparation of the oropharynx, 1%

Compound: C[C@@H]1[C@H](O)[C@@H](C)/C=C/C=C/C=C/C=C/C=C/C=C/C=C/[C@H](O[C@@H]2O[C@H](C)[C@@H](O)[C@H](N)[C@@H]2O)C[C@@H]2O[C@](O)(C[C@@H](O)C[C@@H](O)[C@H](O)CC[C@@H](O)C[C@@H](O)CC(=O)O[C@H]1C)C[C@H](O)[C@H]2C(=O)O [amphotericin B]
- activity against Candida biofilms [1]: resistant
- clearing of a feeding tube colonized with Candida [2]: unsuccessful
- clearing the yeast crust from the inner surface of the tube [3]: unsuccessful

Compound: CC[C@H](C)C[C@H](C)CCCCCCCCC(=O)N[C@H]1C[C@@H](O)[C@@H](NCCN)NC(=O)[C@@H]2[C@@H](O)CCN2C(=O)[C@H]([C@H](O)CCN)NC(=O)[C@H]([C@H](O)[C@@H](O)c2ccc(O)cc2)NC(=O)[C@@H]2C[C@@H](O)CN2C(=O)[C@H]([C@@H](C)O)NC1=O [caspofungin]
- killing [4]: ≥ 99%
- effect of coating of biomaterials on subsequent biofilm development by Candida albicans ([5]; biomaterials coated with drug): inhibitory effect
- effects on preformed Candida albicans biofilms ([5]; scanning electron microscopy and confocal scanning laser microscopy): altered the cellular morphology and the metabolic status
- minimum inhibitory concentration at which 50% of the sessile cells were inhibited ([5]; sessile Candida albicans cells): well within the drug's therapeutic range
- in vitro activity against sessile Candida albicans cells within biofilms ([5]; sessile cells within biofilms): potent in vitro activity
- activity against Candida biofilms [1]: showed activity
- activity against Candida spp. (Candida spp.): active

Compound: [H]/N=C(\N/C(=N/[H])NCCCCCCNC(=N)NC(=N)Nc1ccc(Cl)cc1)Nc1ccc(Cl)cc1 [chlorhexidine]
- activity against Candida biofilms [1]: resistant

Compound: OC(Cn1cncn1)(Cn1cncn1)c1ccc(F)cc1F [fluconazole]
- activity against Candida biofilms [1]: resistant

Compound: CCCCCOc1ccc(-c2cc(-c3ccc(C(=O)N[C@H]4C[C@@H](O)[C@@H](O)NC(=O)[C@@H]5[C@@H](O)[C@@H](C)CN5C(=O)[C@H]([C@H](O)CC(N)=O)NC(=O)[C@H]([C@H](O)[C@@H](O)c5ccc(O)c(OS(=O)(=O)O)c5)NC(=O)[C@@H]5C[C@@H](O)CN5C(=O)[C@H]([C@@H](C)O)NC4=O)cc3)no2)cc1 [micofungin] (X1-[Orn(4R-OH,5R-OH)]T[Hyp][hTyr(3S-OH,4S-OH,3'-OSO3H)][Gln(3R-OH)][Pro(3S-OH,4S-Me)]; lactam 1-C)
- activity against Candida biofilms [1]: showed activity

Compound: C[C@@H]1[C@H](O)[C@@H](C)/C=C/C=C/CC/C=C/C=C/C=C/C=C/C(O[C@H]2O[C@H](C)[C@@H](O)[C@H](N)[C@@H]2O)CC2O[C@](O)(CC(O)C(O)CCC(O)CC(O)CC(O)CC(=O)O[C@H]1C)CC(O)C2C(=O)O (some centres unmarked) [nystatin]
- activity against Candida biofilms [1]: resistant
- clearing of a feeding tube colonized with Candida [2]: unsuccessful
- clearing the yeast crust from the inner surface of the tube [3]: unsuccessful

Compound: C[C@@H](c1nc(-c2ccc(C#N)cc2)cs1)[C@](O)(Cn1cncn1)c1ccc(F)cc1F [ravuconazole]
- activity against Candida biofilms [1]: resistant

Compound: CN(C/C=C/C#CC(C)(C)C)Cc1cccc2ccccc12 [terbenafine]
- activity against Candida biofilms [1]: resistant

Compound: C[C@@H](c1ncncc1F)[C@](O)(Cn1cncn1)c1ccc(F)cc1F [voriconazole]
- activity against Candida biofilms [1]: resistant

Compound: neomycin
- prophylaxis of fungal colonization of feeding tubes [6]: failed
